{"source": "patent US20150258202A1", "about": "“ANTHOCYANIDIN COMPLEX FOR THE TREATMENT OF MULTIPLE MYELOMA” (priority 2012, published 2015)", "key": {"[1]": {"experiment": "Solubility of delphinidin chloride in aqueous cyclodextrin solutions (complexing)", "format": "physicochemical", "details": "pure water, cyclodextrin concentration 0; stirred 30° C. 20 h in the dark, filtered 0.22 μm", "experimental": "A reversed-phase HPLC method was used to determine the delphinidin chloride content in the delphinidin-containing compositions.\nIn this example, the complexing of delphinidin by various cyclodextrins and the solubility of the complex in aqueous solution are investigated.\nNeutral aqueous solutions were prepared comprising 10% by weight of the respective cyclodextrin.\nGlass flasks were filled with 5 ml each of aqueous cyclodextrin solution and pure water. An excess of delphinidin chloride was then added.\nThe suspensions were stirred at 30° C. for 20 h in the dark. The suspension was then filtered through a membrane filter of 0.22 μm pore size."}, "[2]": {"tested_on": "mouse myeloma cell line MOPC-315", "experiment": "FACS analysis of dead cells stained with propidium iodide", "format": "cell-based", "details": "summary of BLI measurement and FACS analysis", "excerpt": "1. Test Line and Experimental Setup • In the in vitro experiments, the effect of the delphinidin+sulfobutyl ether β-cyclodextrin complex (delphinidin+SBEBCD below) and delphinidin on the mouse myeloma cell line MOPC-315 (ATTC catalog no. TIB-23) was investigated by BLI (=bioluminescence imaging) measurement and FACS (fluorescence activated cell sorting) analysis described below. The methods used (BLI measurement and FACS analysis) are known to those skilled in the art from patent and technical literature, for example, from the FACS-based patent DE 1815352 C1."}, "[3]": {"experiment": "Stability trials in aqueous solution (0.9% NaCl, 37° C., delphinidin content by HPLC)", "format": "physicochemical", "details": "0.9% NaCl solution, dark", "description": "To determine the delphinidin chloride content in the delphinidin-containing solutions, a reversed-phase HPLC method was used similar to the one already described above. The following reagents were used in this case:\nThe solutions were prepared at room temperature and subsequently stored in the dark at 37° C. in closed vials.\nThe delphinidin content was determined after 1, 2, 3 and 4 h. The table below gives the content determined as a percentage of the starting concentration stated above.\nThe determination of the delphinidin content in the samples was calculated with the aid of the Agilent ChemStation software using the calibration with the external standard described."}}}
{"smiles": "Oc1cc(O)c2cc(O)c(-c3cc(O)c(O)c(O)c3)[o+]c2c1.[Cl-]", "note": "[Delphinidin chloride]", "values": [{"measurement": "Delphinidin chloride (solubility achievable)", "setting": "[1]", "result": 70, "unit": "µg/mL"}, {"measurement": "Killing of myeloma cells in vitro", "setting": "[2]", "result": "kill human myeloma cells in vitro"}, {"measurement": "Dose dependence of cell killing", "setting": "[2]; higher doses", "result": "virtually all cells are killed at higher doses"}, {"measurement": "Delphinidin content as a percentage of the starting concentration", "setting": "[3]; 0 h", "result": 100, "unit": "%"}, {"measurement": "Delphinidin content as a percentage of the starting concentration", "setting": "[3]; 1 h", "result": 8.3, "unit": "%"}, {"measurement": "Delphinidin content as a percentage of the starting concentration", "setting": "[3]; 2 h", "result": 6.5, "unit": "%"}, {"measurement": "Delphinidin content as a percentage of the starting concentration", "setting": "[3]; 3 h", "result": 5.6, "unit": "%"}, {"measurement": "Delphinidin content as a percentage of the starting concentration", "setting": "[3]; 4 h", "result": 5.1, "unit": "%"}]}
